Data on nine molecules can be found in US20120129870A1, “PIPERAZINYL DERIVATIVES USEFUL AS MODULATORS OF THE NEUROPEPTIDE Y2 RECEPTOR” (priority 2007, published 2012).

pIC50, pKi: −log10 of the molar value.

Assay [1] addresses T1, NPY Y2 receptor (Homo sapiens, UniProt P49146).
T1 sequence (P49146 1-381): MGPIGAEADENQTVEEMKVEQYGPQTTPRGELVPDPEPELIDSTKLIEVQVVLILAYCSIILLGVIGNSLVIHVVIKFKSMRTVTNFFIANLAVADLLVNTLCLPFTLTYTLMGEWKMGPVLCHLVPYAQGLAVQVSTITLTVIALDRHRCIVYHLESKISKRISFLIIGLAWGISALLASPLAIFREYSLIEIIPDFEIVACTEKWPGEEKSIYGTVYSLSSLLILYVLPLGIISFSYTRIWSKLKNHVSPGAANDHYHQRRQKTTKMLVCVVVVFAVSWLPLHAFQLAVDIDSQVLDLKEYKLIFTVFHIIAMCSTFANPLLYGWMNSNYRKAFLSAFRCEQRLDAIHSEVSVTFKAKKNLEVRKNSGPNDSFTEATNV
The experiment in a line: Neuropeptide Y2 pKB assay (FLIPR, KAN-Ts cells stably expressing chimeric G proteins). Format: cell-based. The conditions noted are these: apparent pKB, modified Cheng-Prusoff correction. As to the method: The assay was performed using the fluorimetric imaging plate reader (FLIPR) format as described in Dautzenberg, F. M., Biochemical Pharmacology 2005, 69, 1493.
KAN-Ts cells stably expressing chimeric G proteins were seeded at a density of 100,000 cells into poly-d-lysine coated 384-well blackwall, clear-bottom microtiter plates (Corning, N.Y.). One day later, the medium was removed and 50 μl loading medium DMEM high glucose, without serum, supplemented with 10 mM HEPES-acid, 0.1% BSA, 5 mM probenecid and 2 μM Fluo-3AM was added. Cells were loaded for 1 h at 37° C., washed twice with 50 μl assay buffer (5 mM HEPES-acid, 140 mM NaCl, 1 mM MgCl2, 5 mM KCl, 10 mM glucose) and then 30 μl assay buffer was added. Cells were further pre-incubated at room temperature before adding agonists or agonists plus antagonists in 20 μl assay buffer and then measured on a T-channel fluorometric imaging plate reader (FLIPR, Molecular Devices, Sunnyvale, Calif.). Antagonistic potency values were converted to apparent pKB values using a modified Cheng-Prusoff correction. Apparent pKB was calculated as pKB=−log IC50/1+[conc agonist/EC50].

Assay [2] concerns the target T1, NPY Y2 receptor. The experiment in a line: Neuropeptide Y2 radioligand binding assay ([125I]PYY, KAN-Ts membranes). Also noted: endogenous in cells; host or cells: KAN-Ts cells (membrane preparation). Conditions: for pIC50: KAN-Ts membranes endogenously expressing Y2, [125I]PYY (80 pM), 1 h at rt; for pKi: apparent Ki=IC50/(1+C/KD). Put shortly:
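Membranes from KAN-Ts cells with endogenous Y2 receptors, incubated with 80 pM [125I]PYY ± compound for 1 h at rt in HEPES/NaCl/CaCl2/MgSO4 buffer, then filtered and counted. Nonspecific binding defined with […]. IC50 from sigmoidal fit; Ki = IC50/(1+C/KD).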

One may read the pIC50 as the IC50 on a negative log10 scale, so that one unit is a factor of ten. For `CCC(CC)C(=O)Nc1ccc(N2CCN(C(c3ccccc3)c3noc(C)n3)CC2)c(F)c1` (stereo not drawn) [Compound 239, 2-Ethyl-N-(3-fluoro-4-{4-[(5-methyl-[1,2,4]-oxadiazol-3-yl)-phenyl-methyl]-piperazin-1-yl}-phenyl)-butyramide], the Kb on NPY Y2 receptor [1] was 12.6 nM. For the same molecule, the pIC50 at NPY Y2 receptor [2] was 7.89.
For the molecule `CCC(CC)C(=O)Nc1ccc(N2CCN(C(c3ccccc3)c3noc(-c4ccccc4)n3)CC2)c(F)c1` (stereo not drawn) [Compound 240, 2-Ethyl-N-(3-fluoro-4-{4-[phenyl-(5-phenyl-[1,2,4]-oxadiazol-3-yl)-methyl]-piperazin-1-yl}-phenyl)-butyramide], at NPY Y2 receptor [1], the Kb is 126 nM. At NPY Y2 receptor [2], this molecule had a pIC50 of 7.41.
Regarding `CCC(CC)C(=O)Nc1cc(F)c(N2CCN(C(c3ccccc3)c3ncco3)CC2)c(F)c1` (stereo not drawn) [Compound 243, N-{3,5-Difluoro-4-[4-(oxazol-2-yl-phenyl-methyl)-piperazin-1-yl]-phenyl}-2-ethyl-butyramide], the Kb at NPY Y2 receptor [1] was 126 nM. Besides, the pIC50 at NPY Y2 receptor [2] is 7.30.
In general, pKi refers to the negative decadic logarithm of the Ki, by convention in mol/L. Regarding `Cc1noc(C)c1C(=O)Nc1ccc(N2CCN(C(c3ccccc3)c3ccccc3)CC2)c(C#N)c1` [Compound 302, N-{3-Cyano-4-[4-(diphenylmethyl)piperazin-1-yl]phenyl}-3,5-dimethylisoxazole-4-carboxamide], the Kb at NPY Y2 receptor [1] is 501 nM. Besides, at NPY Y2 receptor [2], the pKi was 7.85.
Regarding `CCC(CC)C(=O)Nc1ccc(N2CCN(C(c3ccccc3)c3ccccc3)CC2)c(C#N)c1` [Compound 304, N-[4-(4-Benzhydryl-piperazin-1-yl)-3-cyano-phenyl]-2-ethyl-butyramide], on NPY Y2 receptor [1], the Kb is 501 nM. At NPY Y2 receptor [2], the pKi was 8.33.
In the case of `CCC(CC)C(=O)Nc1ccc(N2CCN(C(c3ccccc3)c3ccccc3C)CC2)c(C#N)c1` (stereo not drawn) [Compound 305, N-{3-Cyano-4-[4-(phenyl-o-tolyl-methyl)-piperazin-1-yl]-phenyl}-2-ethyl-butyramide], the Kb on NPY Y2 receptor [1] is 316 nM. Also, the pKi at NPY Y2 receptor [2] is 7.44.
Turning to `CCC(CC)C(=O)Nc1ccc(N2CCN(C(c3ccccc3)c3ccncc3)CC2)c(C#N)c1` (stereo not drawn) [Compound 315, N-{3-Cyano-4-[4-(phenyl-pyridin-4-yl-methyl)-piperazin-1-yl]-phenyl}-2-ethyl-butyramide], the Kb at NPY Y2 receptor [1] is 50.1 nM. In addition, the pKi at NPY Y2 receptor [2] is 8.36.
Regarding `CCC(CC)C(=O)Nc1ccc(N2CCN(C(c3ccccc3)c3cccnc3)CC2)c(C#N)c1` (stereo not drawn) [Compound 317, N-{3-Cyano-4-[4-(phenyl-pyridin-3-yl-methyl)-piperazin-1-yl]-phenyl}-2-ethyl-butyramide], the Kb at NPY Y2 receptor [1] is 31.6 nM. On NPY Y2 receptor [2], the pKi is 8.37.
As to `N#Cc1cc(NC(=O)C2CC2)ccc1N1CCN(C(c2ccccc2)c2cccnc2)CC1` (stereo not drawn) [Compound 321, Cyclopropanecarboxylic acid {3-cyano-4-[4-(phenyl-pyridin-3-yl-methyl)-piperazin-1-yl]-phenyl}-amide], the Kb on NPY Y2 receptor [1] is 31.6 nM. Further, the pKi on NPY Y2 receptor [2] was 7.96.
